Experimental data published in ChEMBL document CHEMBL1201862, “PubChem BioAssay data set” (2004).
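The compound was tested at five concentrations on cells cultured in 96-well plates, with a 48-hour exposure period. GI50 is the concentration that inhibits growth by half.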 Active and inactive are the calls of the source. Cut-off read from the data, not from the text of the source: active = GI50 up to about 1.1 µM and inactive = higher.

Experiments:
Assay in all cases: NCI tumour cell line growth inhibition, 48 h
SNB-75 = tested on: SNB-75
K562 = tested on: K562
OVCAR-8 = tested on: OVCAR-8
MDA-MB-435 = tested on: MDA-MB-435
HCT-116 = tested on: HCT-116
BT-549 = tested on: BT-549
CAKI-1 = tested on: CAKI-1
MDA-MB-231 = tested on: MDA-MB-231
T47D = tested on: T47D
U-251 = tested on: U-251
OVCAR-3 = tested on: OVCAR-3
EKVX = tested on: EKVX
SF-539 = tested on: SF-539
UACC-257 = tested on: UACC-257
HOP-62 = tested on: HOP-62
MDA-N = tested on: MDA-N
HCC 2998 = tested on: HCC 2998
SK-OV-3 = tested on: SK-OV-3
OVCAR-5 = tested on: OVCAR-5
RPMI-8226 = tested on: RPMI-8226
HOP-92 = tested on: HOP-92
HT-29 = tested on: HT-29
OVCAR-4 = tested on: OVCAR-4
SNB-19 = tested on: SNB-19
SW-620 = tested on: SW-620
A549 = tested on: A549
SF-295 = tested on: SF-295
UACC-62 = tested on: UACC-62
COLO 205 = tested on: COLO 205
SK-MEL-28 = tested on: SK-MEL-28
MOLT-4 = tested on: MOLT-4
HCT-15 = tested on: HCT-15
HL-60 = tested on: HL-60
M14 = tested on: M14
ACHN = tested on: ACHN
MCF7 = tested on: MCF7
Hs-578T = tested on: Hs-578T
786-0 = tested on: 786-0
DU-145 = tested on: DU-145
LOX IMVI = tested on: LOX IMVI
KM12 = tested on: KM12
SF-268 = tested on: SF-268
UO-31 = tested on: UO-31
Malme-3M = tested on: Malme-3M
NCI-H460 = tested on: NCI-H460
PC-3 = tested on: PC-3
NCI/ADR-RES = tested on: NCI/ADR-RES
NCI-H23 = tested on: NCI-H23
SK-MEL-2 = tested on: SK-MEL-2
IGROV-1 = tested on: IGROV-1
SN12C = tested on: SN12C
SK-MEL-5 = tested on: SK-MEL-5
A498 = tested on: A498
CCRF-CEM = tested on: CCRF-CEM
NCI-H226 = tested on: NCI-H226
TK-10 = tested on: TK-10
SR = tested on: SR
RXF 393 = tested on: RXF 393

With `C/C(=N\NC(=S)NC1CCCC1)c1ccccn1` the GI50 (SNB-75) was 2.25 µM (inactive), the GI50 (K562) was < 0.01 µM (active) and the GI50 (OVCAR-8) was < 0.0218 µM (active). For the same molecule, the GI50 (MDA-MB-435) was 0.578 µM (active), the GI50 (HCT-116) was < 0.01 µM (active) and the GI50 (BT-549) was 0.472 µM (active). The GI50 (CAKI-1) was < 0.01 µM (active), the GI50 (MDA-MB-231) was 1.08 µM (active) and the GI50 (T47D) was < 0.01 µM (active). The GI50 (U-251) was 0.0753 µM (active), the GI50 (OVCAR-3) was < 0.01 µM (active) and the GI50 (EKVX) was < 0.01 µM (active). For the same molecule, the GI50 (SF-539) was 1.02 µM (active), the GI50 (UACC-257) was < 0.01 µM (active) and the GI50 (HOP-62) was < 0.017 µM (active). The GI50 (MDA-N) was 0.165 µM (active), the GI50 (HCC 2998) was 0.515 µM (active) and the GI50 (SK-OV-3) was 0.1 µM (active). The GI50 (OVCAR-5) was 0.0356 µM (active), the GI50 (RPMI-8226) was < 0.01 µM (active) and the GI50 (HOP-92) was 0.0718 µM (active). For the same molecule, the GI50 (HT-29) was < 0.01 µM (active), the GI50 (OVCAR-4) was 0.135 µM (active) and the GI50 (SNB-19) was 1.05 µM (active). The GI50 (SW-620) was < 0.01 µM (active), the GI50 (A549) was 0.0991 µM (active) and the GI50 (SF-295) was 0.223 µM (active). The GI50 (UACC-62) was 0.2 µM (active), the GI50 (COLO 205) was < 0.01 µM (active) and the GI50 (SK-MEL-28) was 3.28 µM (inactive). The GI50 (MOLT-4) was < 0.01 µM (active), the GI50 (HCT-15) was < 0.01 µM and the GI50 (HL-60) was < 0.01 µM (active). The GI50 (M14) was < 0.01 µM (active), the GI50 (ACHN) was < 0.01 µM (active) and the GI50 (MCF7) was < 0.01 µM (active). The GI50 (Hs-578T) was 36.6 µM (inactive), the GI50 (786-0) was 0.0467 µM (active) and the GI50 (DU-145) was 0.9 µM (active). For the same molecule, the GI50 (LOX IMVI) was < 0.01 µM (active), the GI50 (KM12) was 0.0708 µM (active) and the GI50 (SF-268) was 0.569 µM (active). For the same molecule, the GI50 (UO-31) was < 0.026 µM (active), the GI50 (Malme-3M) was 0.434 µM (active) and the GI50 (NCI-H460) was 0.0533 µM (active). The GI50 (PC-3) was < 0.01 µM (active), the GI50 (NCI/ADR-RES) was < 0.01 µM (active) and the GI50 (NCI-H23) was < 0.0177 µM (active). For the same molecule, the GI50 (SK-MEL-2) was 1.35 µM (inactive), the GI50 (IGROV-1) was < 0.01 µM (active) and the GI50 (SN12C) was 0.299 µM (active). The GI50 (SK-MEL-5) was 0.205 µM (active), the GI50 (A498) was 0.65 µM (active) and the GI50 (CCRF-CEM) was < 0.01 µM (active). For the same molecule, the GI50 (NCI-H226) was 0.0416 µM (active), the GI50 (TK-10) was 0.202 µM (active) and the GI50 (SR) was < 0.01 µM (active).

In the case of `COc1ccc(/C=C2\C(=O)N(C3OC(COC(C)=O)C(OC(C)=O)C(OC(C)=O)C3OC(C)=O)c3ccccc3N=C2N)cc1` (centres undefined), the GI50 (SNB-75) was 23.2 µM (inactive), the GI50 (K562) was 11.9 µM (inactive) and the GI50 (OVCAR-8) was 19.4 µM (inactive). The GI50 (MDA-MB-435) was 4.65 µM (inactive), the GI50 (HCT-116) was 19.7 µM (inactive) and the GI50 (BT-549) was 23.9 µM (inactive). The GI50 (CAKI-1) was 31.4 µM (inactive), the GI50 (MDA-MB-231) was 43.5 µM (inactive) and the GI50 (T47D) was 14 µM (inactive). The GI50 (U-251) was 27.1 µM (inactive), the GI50 (OVCAR-3) was 23.2 µM (inactive) and the GI50 (EKVX) was 26.8 µM (inactive). For the same molecule, the GI50 (SF-539) was 9.06 µM (inactive), the GI50 (UACC-257) was 24.5 µM (inactive) and the GI50 (HOP-62) was 28.9 µM (inactive). For the same molecule, the GI50 (MDA-N) was 4.48 µM (inactive), the GI50 (HCC 2998) was 21.8 µM (inactive) and the GI50 (SK-OV-3) was 27.6 µM (inactive). For the same molecule, the GI50 (OVCAR-5) was 33.9 µM (inactive), the GI50 (RPMI-8226) was 16 µM (inactive) and the GI50 (HOP-92) was 71.4 µM (inactive). The GI50 (HT-29) was 18.8 µM (inactive), the GI50 (OVCAR-4) was 33.5 µM (inactive) and the GI50 (SNB-19) was 42.7 µM (inactive). For the same molecule, the GI50 (SW-620) was 30.7 µM (inactive), the GI50 (A549) was 29.2 µM (inactive) and the GI50 (SF-295) was 21.9 µM (inactive). For the same molecule, the GI50 (UACC-62) was 17.5 µM (inactive), the GI50 (COLO 205) was 15.6 µM (inactive) and the GI50 (SK-MEL-28) was 23.9 µM (inactive). The GI50 (MOLT-4) was 18.3 µM (inactive), the GI50 (HCT-15) was 12.9 µM and the GI50 (HL-60) was 18.2 µM (inactive). The GI50 (M14) was 20.7 µM (inactive), the GI50 (ACHN) was 38.5 µM (inactive) and the GI50 (MCF7) was 19.1 µM (inactive). The GI50 (Hs-578T) was 34.6 µM (inactive), the GI50 (786-0) was 17.5 µM (inactive) and the GI50 (DU-145) was 25.7 µM (inactive). For the same molecule, the GI50 (RXF 393) was 21.8 µM (inactive), the GI50 (LOX IMVI) was 24.5 µM (inactive) and the GI50 (KM12) was 16.9 µM (inactive). The GI50 (SF-268) was 32.5 µM (inactive), the GI50 (UO-31) was 32.4 µM (inactive) and the GI50 (Malme-3M) was 27.4 µM (inactive). The GI50 (NCI-H460) was 25.1 µM (inactive), the GI50 (PC-3) was 23.7 µM (inactive) and the GI50 (NCI/ADR-RES) was 20.5 µM (inactive). The GI50 (NCI-H23) was 20 µM (inactive), the GI50 (SK-MEL-2) was 23.1 µM (inactive) and the GI50 (IGROV-1) was 27.3 µM (inactive). For the same molecule, the GI50 (SN12C) was 36.9 µM (inactive), the GI50 (SK-MEL-5) was 11.3 µM (inactive) and the GI50 (A498) was 28.2 µM (inactive). For the same molecule, the GI50 (CCRF-CEM) was 16.8 µM (inactive), the GI50 (TK-10) was 34 µM (inactive) and the GI50 (SR) was 5.37 µM (inactive).
